Measured values taken from ChEMBL document CHEMBL1134491, “QSAR and molecular modeling studies of baclofen analogues as GABA(B) agonists. Insights into the role of the aromatic moiety in GABA(B) binding and activation” (J Med Chem, 2001).

Test: Inhibitory concentration against binding of (R)-(-)-[3H]-baclofen to GABAB sites on rat whole brain synaptic membrane

Compound | IC50 [µM]
NC[C@H](CC(=O)O)c1ccccc1Cl | 0.8
Cc1ccc([C@H](CN)CC(=O)O)o1 | > 100
NC[C@H](CC(=O)O)c1ccsc1 | 20.9
NC[C@H](CC(=O)O)c1cccs1 | 9.72
NC[C@H](CC(=O)O)c1cc(Br)cs1 | 39.1
NC[C@H](CC(=O)O)c1cccc(Cl)c1 | 20
NC[C@H](CC(=O)O)c1ccco1 | > 100
NC[C@H](CC(=O)O)c1cc(Cl)cs1 | 45.3
Cc1ccsc1[C@H](CN)CC(=O)O | 124
Cc1ccc([C@H](CN)CC(=O)O)s1 | 134
NC[C@H](CC(=O)O)c1ccc(O)cc1 | > 100
NC[C@H](CC(=O)O)c1ccc(Br)s1 | 1.86
NC[C@H](CC(=O)O)c1ccc(Cl)s1 | 0.61
NC[C@H](CC(=O)O)c1ccc(F)cc1 | 0.8
